Experimental data from patent publication US11529299B2, “Hair care compositions comprising a 2-pyridinol-n-oxide material and an iron chelator” (The Procter & Gamble Company, priority 2017, dated 2022).

Legend:
[1] = test system: Malassezia furfur; assay: Minimum inhibitory concentration (MIC), growth inhibition of Malassezia by culture optical density; assay type: cell-based; conditions: material alone, OD <= 20% of untreated control, 33° C., two days, M. Dixon medium pH 5.5, average of two replicates; for MIC: Malassezia furfur, 48 h
Procedure: To measure the growth inhibition properties of test materials against Malassezia, the following protocol is followed. The Malassezia furfur is cultured in 50 ml M. […] The pH is adjusted to 5.5 using 1N HCl. The media is autoclaved. Starting cultures are prepared by incubating freezer stocks with shaking at 33° C. The inoculum of Malassezia cells is 5.5×10^5 cfu/ml. Cells are incubated at 33° C. for two days. After the two day incubation optical density is read and background subtracted. MIC values are determined by averaging the results from two replicate experiments.

[2] = from NIST Standard Reference Database 46; cited from earlier work
[3] = test system: M.Furfur 7892 cells; assay: Modified Fractional Inhibitory Concentration (MFIC), anti-Malassezia activity of combinations; assay type: cell-based, Malassezia furfur; conditions: titrated from 400 ppm; for MFIC: Table 3, chelator as Material #2 combined with the 2-pyridinol-N-oxide material at 1/2 its MIC; for Modified Fractional Inhibitory Concentration (MFIC): lowest concentration of Material #2 inhibiting growth with Material #1 (1-hydroxy-4-methyl-6-(2,4,4-trimethylpentyl)-2-pyridone monoethanolamine salt) at 1/2 its MIC, 33° C., 2 days
Procedure: A Modified Fractional Inhibitory Concentration (MFIC) is used to determine the combinatorial effects of two chemicals on anti-Malassezia activity in a tissue culture setting. […] I. […] Low levels of M.Furfur 7892 cells are inoculated into each well of a 96 well plate. • 3. […] Plates are incubated at 33° C. for 2 days. • 6. Optical densities (OD's) are then determined using a spectrophotometer. II. […] Inhibition of growth is determined if the culture optical density is less than or equal to ⅕ (20%) of the culture optical density of the untreated control • 2.

Row | Minimum inhibitory concentration (MIC) [1] [ppm] | Structure (SMILES) | Log K1 (iron binding affinity) [2] | MFIC [3] [ppm] | Modified Fractional Inhibitory Concentration (MFIC) [3] [ppm] | MIC [1] [µg/mL]
1 | >400 | O=P(O)(O)CN(CCN(CP(=O)(O)O)CP(=O)(O)O)CCN(CP(=O)(O)O)CP(=O)(O)O [Diethylenetriaminepentakis(methylenephosphonic acid)] | 23 | 50 | 50 | 
2 | >400 | O=C(O)CN(CCN(CC(=O)O)CC(=O)O)CCN(CC(=O)O)CC(=O)O [Diethylenetriaminepentaacetic acid] | 28 | 37 | 37 | 

Continued, molecule first:

Row | Structure (SMILES) | Minimum inhibitory concentration (MIC) [1] [ppm] | Log K1 (iron binding affinity) [2] | MFIC [3] [ppm] | Modified Fractional Inhibitory Concentration (MFIC) [3] [ppm] | MIC [1] [µg/mL]
3 | Cc1cc(CC(C)CC(C)(C)C)n(O)c(=O)c1.NCCO (centres unmarked) [1-hydroxy-4-methyl-6-(2,4,4-trimethylpentyl)-2-pyridone monoethanolamine salt] |  |  |  |  | 25
4 | CC(C(=O)O)N(CC(=O)O)CC(=O)O (centres unmarked) [Methylglycine diacetic acid (MGDA), Methylglycine diacetic acid] |  | 16 | >400 |  | 
5 | CC(=O)N(O)CCCCCNC(=O)CCC(=O)N(O)CCCCCNC(=O)CCC(=O)N(O)CCCCCN [Desferrioxamine] |  | 31 | 5 | 5 | > 400
6 | O=C(O)CC(O)(CC(=O)O)C(=O)O [Citric Acid] |  | 11 | >400 |  | 
